Converted amounts (≈) assume the structure as drawn. Structures can show the parent of a compound that is named as a salt.

This is an account of results in patent US4833242A, “Cephalosporin derivatives and salts thereof” (Daiichi Seiyaku Co., Ltd., priority 1984, dated 1989).

The subject of one data set is Pr. vulgaris, 08601. The data set can be described thus: Minimum Inhibitory Concentration, broth dilution method. It is filed as cell-based. As to conditions: Proteus vulgaris, 10^6 cells/ml, 37° C., 18 hours. The procedure: (§1) |Minimum Inhibitory Concentration (MIC, μg/ml) |(Broth dilution method, inoculated amount: 10^6 cells/ml, incubated |at 37° C. for 18 hours)
A general note: In broth dilution the organism is exposed to a series of concentrations in liquid medium.

The next data set has as its system Ser. marcescens, 10104. Described as above. The following applies: Serratia marcescens, 10^6 cells/ml, 37° C., 18 hours. It is filed as cell-based. The procedure:
as §1

The next data set relates to Ps. aeruginosa, 32104. Described as above. The class given is cell-based. As to conditions: Pseudomonas aeruginosa, 10^6 cells/ml, 37° C., 18 hours. The procedure: as §1
The next data set has as its system S. aureus, 209P. Described as above. It is filed as cell-based. As to conditions: Staphylococcus aureus, 10^6 cells/ml, 37° C., 18 hours. The procedure:
as §1

The next data set deals with Ps. putida, IID 5121. Described as above. The class given is cell-based. The following applies: Pseudomonas putida, IID5121, 10^6 cells/ml, 37° C., 18 hours. The procedure: as §1
For the next data set, the system named is Ps. aeruginosa, 32121. Described as above. The class given is cell-based. The following applies: Pseudomonas aeruginosa, 10^6 cells/ml, 37° C., 18 hours. The procedure:
as §1

The test system of the next data set is E. coli, NIHJ. The data set is described as above. It is filed as cell-based. The following applies: Escherichia coli, 10^6 cells/ml, 37° C., 18 hours. The procedure: as §1
The test system of the next data set is Ps. aeruginosa, 32234. The description is as above. The class given is cell-based. As to conditions: Pseudomonas aeruginosa, 10^6 cells/ml, 37° C., 18 hours. The procedure: as §1
Data set [1] in a line: acute toxicity, i.v. in mice. As to conditions: mouse, in vivo, iv.
A further data set relates to male rats. As to the kind of experiment: repeated intravenous administration to male rats for 10 consecutive days. The class given is in vivo. As to conditions: intravenous, 100, 300 or 1,000 mg/kg. The source says: The compounds of this invention are also characterized by low toxicity and, therefore, have a wide safety margin.

On to `CO/N=C(\C(=O)N[C@@H]1C(=O)N2C(C(=O)O)=C(COC(C)=O)CS[C@H]12)c1csc(N)n1` [Cefotaxime, Sodium 7β-[2-(2-aminothiazol-4-yl)-2-methoxyiminoacetamido]-3-acetoxymethyl-3-cephem-4-carboxylate (syn isomer), reference compound], for which the MIC (commonly the least concentration at which growth counts as inhibited) is less than 0.1 µg/mL in the data set with Pr. vulgaris, 08601; 0.39 µg/mL against Ser. marcescens, 10104; 25 µg/mL against Ps. aeruginosa, 32104; 3.13 µg/mL in the data set with S. aureus, 209P; 50 µg/mL against Ps. putida, IID 5121; 12.5 µg/mL against Ps. aeruginosa, 32121. Moreover, the MIC in the data set with E. coli, NIHJ was less than 0.1 µg/mL; in the data set with Ps. aeruginosa, 32234 it was 12.5 µg/mL.
`CO/N=C(\C(=O)N[C@@H]1C(=O)N2C(C(=O)[O-])=C(C[n+]3ccc(-n4ccnc4)cc3)CS[C@H]12)c1csc(N)n1` [Compound A, 7β-[2-(2-Aminothiazol-4-yl)-2-methoxyiminoacetamido]-3-[4-(imidazol-1-yl)-1-pyridinio]methyl-3-cephem-4-carboxylate trihydrochloride (syn isomer)]: the MIC with Pr. vulgaris, 08601 was less than 0.1 µg/mL; against Ser. marcescens, 10104, less than 0.1 µg/mL; with Ps. aeruginosa, 32104, 1.56 µg/mL; with S. aureus, 209P, 0.39 µg/mL; with Ps. putida, IID 5121, 1.56 µg/mL; in the data set on Ps. aeruginosa, 32121, 1.56 µg/mL. In addition, the MIC against E. coli, NIHJ is less than 0.1 µg/mL; against Ps. aeruginosa, 32234, 1.56 µg/mL. Besides, in data set [1], the LD50 (usually the dose expected to kill half of the subjects tested) lay in the range of 2000 to 4000 mg/kg.
As for `CO/N=C(\C(=O)N[C@@H]1C(=O)N2C(C(=O)[O-])=C(C[n+]3ccc(-n4cncn4)cc3)CS[C@H]12)c1csc(N)n1` [Compound B, 7β-[2-(2-Aminothiazol-4-yl)-2-methoxyiminoacetamido]-3-[4-(1,2,4-triazol-1-yl)-1-pyridinio]methyl-3-cephem-4-carboxylate dihydrochloride (syn isomer)], the MIC in the data set on Pr. vulgaris, 08601 is less than 0.1 µg/mL; against Ser. marcescens, 10104, less than 0.1 µg/mL; with Ps. aeruginosa, 32104, 1.56 µg/mL; in the data set on S. aureus, 209P, 0.78 µg/mL; against Ps. putida, IID 5121, 6.25 µg/mL; against Ps. aeruginosa, 32121, 0.78 µg/mL. Moreover, the MIC against E. coli, NIHJ was less than 0.1 µg/mL; against Ps. aeruginosa, 32234, 0.78 µg/mL.
Consider `CO/N=C(\C(=O)N[C@@H]1C(=O)N2C(C(=O)[O-])=C(C[n+]3ccc(-c4ncc[nH]4)cc3)CS[C@H]12)c1csc(N)n1` [Compound C, 7β-[2-(2-Aminothiazol-4-yl)-2-methoxyiminoacetamido]-3-[4-(imidazol-2-yl)-1-pyridinio]methyl-3-cephem-4-carboxylate trihydrochloride (syn isomer)], for which the MIC in the data set on Pr. vulgaris, 08601 is less than 0.1 µg/mL; in the data set on Ser. marcescens, 10104, less than 0.1 µg/mL; against Ps. aeruginosa, 32104 it was 25 µg/mL; with S. aureus, 209P, 0.78 µg/mL; in the data set with Ps. putida, IID 5121 it was 12.5 µg/mL; in the data set on Ps. aeruginosa, 32121, 12.5 µg/mL. Further, the MIC is less than 0.1 µg/mL in the data set with E. coli, NIHJ and 1.56 µg/mL in the data set with Ps. aeruginosa, 32234.
Regarding `CO/N=C(\C(=O)N[C@@H]1C(=O)N2C(C(=O)[O-])=C(C[n+]3ccc(-c4ncco4)cc3)CS[C@H]12)c1csc(N)n1` [Compound D, 7β-[2-(2-Aminothiazol-4-yl)-2-methoxyiminoacetamido]-3-[4-(oxazol-2-yl)-1-pyridinio]methyl-3-cephem-4-carboxylate (syn isomer)], the MIC against Pr. vulgaris, 08601 was less than 0.1 µg/mL; in the data set with Ser. marcescens, 10104, less than 0.1 µg/mL; against Ps. aeruginosa, 32104, 3.13 µg/mL (≈ 5.78 µM); against S. aureus, 209P it was 0.78 µg/mL (≈ 1.44 µM); in the data set with Ps. putida, IID 5121, 3.13 µg/mL (≈ 5.78 µM); against Ps. aeruginosa, 32121, 1.56 µg/mL (≈ 2.88 µM). For the same compound, the MIC is less than 0.1 µg/mL against E. coli, NIHJ and 1.56 µg/mL (≈ 2.88 µM) against Ps. aeruginosa, 32234. Also, in data set [1], the LD50 was more than 4000 mg/kg.
As to `CO/N=C(\C(=O)N[C@@H]1C(=O)N2C(C(=O)[O-])=C(C[n+]3ccc(-c4cnco4)cc3)CS[C@H]12)c1csc(N)n1` [Compound E, 7β-[2-(2-Aminothiazol-4-yl)-2-methoxyiminoacetamido]-3-[4-(oxazol-5-yl)-1-pyridinio]methyl-3-cephem-4-carboxylate (syn isomer)], the MIC was less than 0.1 µg/mL in the data set on Pr. vulgaris, 08601; less than 0.1 µg/mL against Ser. marcescens, 10104; 1.56 µg/mL (≈ 2.88 µM) in the data set with Ps. aeruginosa, 32104; 0.39 µg/mL (≈ 0.72 µM) against S. aureus, 209P; 3.13 µg/mL (≈ 5.78 µM) in the data set with Ps. putida, IID 5121; 0.78 µg/mL (≈ 1.44 µM) in the data set on Ps. aeruginosa, 32121. Further, the MIC was less than 0.1 µg/mL against E. coli, NIHJ and 0.78 µg/mL (≈ 1.44 µM) in the data set with Ps. aeruginosa, 32234. In addition, in data set [1], the LD50 is more than 4000 mg/kg. The “body weight, clinical examinations, weight of various organs and histological findings” value in the data set on male rats is “no abnormality were observed”.
Regarding `CO/N=C(\C(=O)N[C@@H]1C(=O)N2C(C(=O)[O-])=C(C[n+]3ccc(-c4nnco4)cc3)CS[C@H]12)c1csc(N)n1` [Compound F, 7β-[2-(2-Aminothiazol-4-yl)-2-methoxyiminoacetamido]-3-[4-(1,3,4-oxadiazol-2-yl)-1-pyridinio]-methyl-3-cephem-4-carboxylate (syn isomer)], the MIC against Pr. vulgaris, 08601 is 0.1 µg/mL (≈ 0.184 µM); in the data set with Ser. marcescens, 10104, less than 0.1 µg/mL; against Ps. aeruginosa, 32104, 0.78 µg/mL (≈ 1.44 µM); in the data set on S. aureus, 209P, 0.39 µg/mL (≈ 0.719 µM); with Ps. putida, IID 5121, 1.56 µg/mL (≈ 2.88 µM); with Ps. aeruginosa, 32121, 0.78 µg/mL (≈ 1.44 µM). In addition, the MIC against E. coli, NIHJ was less than 0.1 µg/mL; against Ps. aeruginosa, 32234, 0.78 µg/mL (≈ 1.44 µM). In data set [1], this compound showed an LD50 of more than 4000 mg/kg.
As for `CO/N=C(\C(=O)N[C@@H]1C(=O)N2C(C(=O)[O-])=C(C[n+]3cccc(-c4cnco4)c3)CS[C@H]12)c1csc(N)n1` [Compound G, 7β-[2-(2-Aminothiazol-4-yl)-2-methoxyiminoacetamido]-3-[3-(oxazol-5-yl)-1-pyridinio]methyl-3-cephem-4-carboxylate (syn isomer)], the MIC against Pr. vulgaris, 08601 is 0.1 µg/mL (≈ 0.185 µM); against Ser. marcescens, 10104, less than 0.1 µg/mL; against Ps. aeruginosa, 32104 it was 3.13 µg/mL (≈ 5.78 µM); in the data set with S. aureus, 209P it was 0.39 µg/mL (≈ 0.72 µM); against Ps. putida, IID 5121 it was 12.5 µg/mL (≈ 23.1 µM); against Ps. aeruginosa, 32121, 1.56 µg/mL (≈ 2.88 µM). In addition, the minimal inhibitory concentration (MIC) was less than 0.1 µg/mL against E. coli, NIHJ and 1.56 µg/mL (≈ 2.88 µM) against Ps. aeruginosa, 32234.
For the compound `CO/N=C(\C(=O)N[C@@H]1C(=O)N2C(C(=O)[O-])=C(C[n+]3ccc(-c4csnn4)cc3)CS[C@H]12)c1csc(N)n1` [Compound H, 7β-[2-(2-Aminothiazol-4-yl)-2-methoxyiminoacetamido]-3-[4-(1,2,3-thiadiazol-4-yl)-1-pyridinio]methyl-3-cephem-4-carboxylate dihydrochloride (syn isomer)], the MIC in the data set with Pr. vulgaris, 08601 was less than 0.1 µg/mL; against Ser. marcescens, 10104, less than 0.1 µg/mL; in the data set on Ps. aeruginosa, 32104 it was 1.56 µg/mL; against S. aureus, 209P, 0.39 µg/mL; in the data set with Ps. putida, IID 5121, 12.5 µg/mL; against Ps. aeruginosa, 32121, 1.56 µg/mL. Moreover, the MIC against E. coli, NIHJ was less than 0.1 µg/mL; against Ps. aeruginosa, 32234, 0.78 µg/mL.
